Consider twelve molecules from patent US11136320B2, “Fused ring derivative used as FGFR4 inhibitor” (JACOBIO PHARMACEUTICALS CO., LTD., priority 2019, dated 2021).

Where two headings read alike, the source gives them in different places.

Series [1] has as its system Hepatoma cell Hep3B (high expression of FGFR4 and FGF19). In words: Hepatoma cell proliferation inhibition experiment (MTS method). It counts as cell-based. Particulars: for IC50: Homo sapiens, Hep3B, read-out: Hep3B(IC50 μM). An excerpt: In this experiment, the MTS method was used to test the inhibitory effect of the compounds on the proliferation of Hepatoma cell Hep3B (high expression of FGFR4 and FGF19), and the half inhibitory concentration IC50 of the compounds to Hep3B was obtained. The Hep3B cell line was purchased from ATCC, and the complete culture medium of the Hep3B cell line was MEM+10% FBS+1% PS. MEM cell culture medium, fetal bovine serum, and trypsin were purchased from Gibco, cell culture flasks were purchased from Greiner, and disposable Cell Counting Plate and Taittinger Blue Solution were purchased from Bio-Rad.
(1) 100 μl Hepatoma cell Hep3B suspension was seeded in a 96-well cell culture plate, and the density of each well was 2.0×10^4 cells/ml.
(3) A mixture of MTS (3-(4,5-dimethylthiazol-2-yl)-5-(3-carboxymethoxyphenyl)-2-(4-sulfophenyl)-2H-tetrazolium)/PMS (phenazine methosulfate) was added into each well for coloration, and MTS/PMS in the mixture was at a ratio of 20:1 (ml:ml). 30 μl of the mixture was added into each well of the culture plate above mentioned in step (2), then the culture plate was incubated for 3 h in the incubator.
(5) The inhibition rate was calculated by the […];
(6) According to the inhibition rate of the different concentrations, the IC50 values of the compounds were obtained by curve fitting.
(Tetrazolium assays rely on reduction of a dye to a coloured formazan, in cell work by metabolically active cells.)

Series [2] has as its target T1, FGFR4 kinase (Homo sapiens (Human), UniProt P22455). In words: biochemical.
Series [3] concerns the target T1, FGFR4 kinase.
Another series is described as follows: PK analysis of rats. It counts as in vivo. As to conditions: SD rats, p.o. (10 mg/kg); for AUC(0-t) / Cmax: rat, plasma, po; for AUC(0-t): read-out: Curve area AUC0-24 h; for Cmax: read-out: Drug concentration in blood Cmax. How it is done:
In the present invention, the pharmacokinetics experiment of the compounds in rats was performed using the SD rats (Vitolihua).
(1) Mode of administration: single gavage administration and intravenous injection administration.
(2) Dosage: 10 mg/kg in the gavage administration, 3 mg/kg in the intravenous injection administration.
Gavage administration: before administration, 15 min, 30 min, 1 h, 2 h, 4 h, 6 h, 8 h, 24 h; […]
(4) Sample processing: 200 μL of orbital blood was collected at each sampling time point. After anticoagulation with heparin, the blood was centrifuged at 5500 rpm for 10 min, and 60 μL of the supernatant was taken and put into the refrigerator at −80° C. for waiting for testing.
Samples obtained after administration of Compound 1 were tested using 4000 LC-MS/MS analyzer, wherein, the chromatographic separation conditions for testing were:
Samples obtained after administration of Compound 7 were tested using 4000 LC-MS/MS analyzer, wherein, the chromatographic separation conditions for testing were:
Samples obtained after administration of Compound 16 were tested using 4000 LC-MS/MS analyzer, wherein, the chromatographic separation conditions for testing were: […]

T1 sequence (P22455 22-802): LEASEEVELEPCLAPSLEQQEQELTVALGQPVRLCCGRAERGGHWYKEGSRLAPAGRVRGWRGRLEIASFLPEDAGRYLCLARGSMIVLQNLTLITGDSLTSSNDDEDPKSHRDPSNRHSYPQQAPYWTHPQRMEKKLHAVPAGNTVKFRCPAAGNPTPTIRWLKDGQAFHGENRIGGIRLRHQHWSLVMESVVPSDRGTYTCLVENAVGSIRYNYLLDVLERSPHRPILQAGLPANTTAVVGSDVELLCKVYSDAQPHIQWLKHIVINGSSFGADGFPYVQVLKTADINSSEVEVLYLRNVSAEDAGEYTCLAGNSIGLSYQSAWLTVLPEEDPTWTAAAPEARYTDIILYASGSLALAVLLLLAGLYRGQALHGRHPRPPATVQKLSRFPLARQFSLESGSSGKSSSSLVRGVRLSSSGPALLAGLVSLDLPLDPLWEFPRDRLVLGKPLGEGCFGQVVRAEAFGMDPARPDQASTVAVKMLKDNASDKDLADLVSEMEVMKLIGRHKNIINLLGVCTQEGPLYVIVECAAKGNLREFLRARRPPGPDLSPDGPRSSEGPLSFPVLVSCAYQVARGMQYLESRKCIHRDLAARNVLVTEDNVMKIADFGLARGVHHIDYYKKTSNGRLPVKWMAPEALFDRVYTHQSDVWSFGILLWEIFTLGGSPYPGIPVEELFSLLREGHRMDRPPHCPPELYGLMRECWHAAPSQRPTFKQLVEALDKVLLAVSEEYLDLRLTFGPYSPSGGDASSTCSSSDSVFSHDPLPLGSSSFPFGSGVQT

What is called IC50 is the midpoint of a concentration-inhibition curve. `CN1CCN(Cc2cc3c(nc2C=O)N(C(=O)Nc2cc(NCCS(C)(=O)=O)c(C#N)cn2)CCC3)C(=O)C1.Cl` [Compound 72, N-(5-cyano-4-((2-(methyl-sulfonyl)ethyl)amino)pyridin-2-yl)-7-formyl-6-((4-methyl-2-oxopiperazin-1-yl)methyl)-3,4-dihydro-1,8-naphthyridine-1(2H)-carboxamide hydrochloride]: the IC50 came out at 0.282 µM in series [1] (120 h incubation) and 2 nM against FGFR4 kinase [2]. For the same molecule, the “inhibitory effect on FGFR4 compared with the reference compound” value against FGFR4 kinase [3] is recorded as “better inhibitory effect on FGFR4 than the reference compound”.
For `CN1CCN(Cc2cc3c(nc2C=O)N(C(=O)Nc2cc(NC4CCSC4)c(C#N)cn2)CCC3)C(=O)C1` (stereo not drawn) [Compound 5, N-(5-cyano-4-((tetrahydrothiophene-3-yl)amino)pyridin-2-yl)-7-formyl-6-((4-methyl-2-oxopiperazin-1-yl)methyl)-3,4-dihydro-1,8-naphthyridine-1 (2H)-carboxamide], in “PK analysis of rats”, the “exposure amount AUC0-24 h and maximum drug concentration in blood Cmax compared with the reference compound” value was “significantly higher than the reference compound”; the AUC(0-t) stood at 6730 ng·h/mL; the Cmax worked out at 1400 ng/mL. In addition, inhibition on FGFR4 kinase [2] was half-maximal at 2 nM (IC50). Also, the “inhibitory effect on FGFR4 compared with the reference compound” value on FGFR4 kinase [3] is given as “better inhibitory effect on FGFR4 than the reference compound”.
With `CSCCNc1cc(NC(=O)N2CCCc3cc(CN(C)C(=O)C4CCOC4)c(C=O)nc32)ncc1C#N.Cl` (stereo not drawn) [Compound 76, N-(5-cyano-4-((2-(methylthio)ethyl)amino)pyridin-2-yl)-7-formyl-6-((N-methyltetrahydrofuran-3-carboxamido)methyl)-3,4-dihydro-1,8-naphthyridine-1(2H)-carboxamide hydrochloride], the “inhibitory effect on Hepatoma cell Hep3B compared with the reference compound” value in series [1] is on record as “better inhibitory effect”. Also, the IC50 in series [1] (120 h incubation) came to 0.006 µM; against FGFR4 kinase [2] it was 2.1 nM. Moreover, the “inhibitory effect on FGFR4 compared with the reference compound” value against FGFR4 kinase [3] is “better inhibitory effect on FGFR4 than the reference compound”.
With `CSCCNc1cc(NC(=O)N2CCCc3cc(CN(C)C(=O)C4CCOCC4)c(C=O)nc32)ncc1C#N.Cl` [Compound 73, N-(5-cyano-4-((2-(methyhthio)ethyl)amino)pyridin-2-yl)-7-formyl-6-((N-methyltetrahydro-2H-pyran-4-carboxamido)methyl)-3,4-dihydro-1,8-naphthyridine-1(2H)-carboxamide hydrochloride], the results for the IC50 (in series [1] (120 h incubation); against FGFR4 kinase [2]) were 0.039 µM and 2.3 nM, respectively. The “inhibitory effect on FGFR4 compared with the reference compound” value on FGFR4 kinase [3] is on record as “better inhibitory effect on FGFR4 than the reference compound”.
Turning to `CSCCCNc1cc(NC(=O)N2CCCc3cc(CN4CCN(C)CC4=O)c(C=O)nc32)ncc1C#N` [Compound 64, N-(5-cyano-4-((3-(methylthio)propyl)amino)pyridin-2-yl)-7-formyl-6-((4-methyl-2-oxopiperazin-1-yl)methyl)-3,4-dihydro-1,8-naphthyridine-1(2H)-carboxamide], the “inhibitory effect on Hepatoma cell Hep3B compared with the reference compound” value in series [1] is recorded as “better inhibitory effect”. Also, the IC50 in series [1] (120 h incubation) worked out at 0.018 µM; against FGFR4 kinase [2] it was 1.6 nM. Also, the “inhibitory effect on FGFR4 compared with the reference compound” value against FGFR4 kinase [3] was “better inhibitory effect on FGFR4 than the reference compound”.
As for `CSCCNc1cc(NC(=O)N2CCCc3cc(CN(C)C(=O)[C@@H]4CCCO4)c(C=O)nc32)ncc1C#N.Cl` [Compound 75, (S)-N-(5-cyano-4-((2-(methylthio)ethyl)amino)pyridin-2-yl)-7-formyl-6-((N-methyltetrahydrofuran-2-carboxamido)methyl)-3,4-dihydro-1,8-naphthyridine-1(2H)-carboxamide hydrochloride], the IC50 turned out to be 0.028 µM in series [1] (120 h incubation) and 1.8 nM on FGFR4 kinase [2]. The “inhibitory effect on FGFR4 compared with the reference compound” value against FGFR4 kinase [3] is “better inhibitory effect on FGFR4 than the reference compound”.
On to `CSC[C@@H](C)Nc1cc(NC(=O)N2CCCc3cc(CN4CCCC4=O)c(C=O)nc32)ncc1C#N` [Compound 7, (R)—N-(5-cyano-4-((1-(methylthio)propan-2-yl)amino)pyridin-2-yl)-7-formyl-6-((2-oxopyrrolidine-1-yl)methyl)-3,4-dihydro-1,8-naphthyridine-1 (2H)-carboxamide], for which the “inhibitory effect on Hepatoma cell Hep3B compared with the reference compound” value in series [1] is given as “better inhibitory effect”. Besides, the IC50 in series [1] (120 h incubation) came out at 0.011 µM. Besides, in “PK analysis of rats”, the “exposure amount AUC0-24 h and maximum drug concentration in blood Cmax compared with the reference compound” value is recorded as “significantly higher than the reference compound”; the AUC(0-t) stood at 2850 ng·h/mL; the Cmax was 736 ng/mL. At FGFR4 kinase [2], this molecule displayed an IC50 of 1.5 nM. Also, on FGFR4 kinase [3], the “inhibitory effect on FGFR4 compared with the reference compound” value was “better inhibitory effect on FGFR4 than the reference compound”.
With `CN1CCN(Cc2cc3c(nc2C=O)N(C(=O)Nc2cc(NCCSC(F)(F)F)c(C#N)cn2)CCC3)C(=O)C1` [Compound 62, N-(5-cyano-4-((2-((trifluoromethyl)thio)ethyl)amino)pyridin-2-yl)-7-formyl-6-((4-methyl-2-oxopiperazin-1-yl)methyl)-3,4-dihydro-1,8-naphthyridine-1(2H)-carboxamide], the half-maximal inhibitory concentration (IC50) is 0.054 µM in series [1] (120 h incubation) and 1.7 nM against FGFR4 kinase [2]. On FGFR4 kinase [3], the “inhibitory effect on FGFR4 compared with the reference compound” value was “better inhibitory effect on FGFR4 than the reference compound”.
On to `CN1CCN(Cc2cc3c(nc2C=O)N(C(=O)Nc2cc(NCc4nccs4)c(C#N)cn2)CCC3)C(=O)C1` [Compound 56, N-(5-cyano-4-((thiazol-2-yl-methyl)amino)pyridin-2-yl)-7-formyl-6-((4-methyl-2-oxopiperazin-1-yl)methyl)-3,4-dihydro-1,8-naphthyridine-1(2H)-carboxamide], for which the “inhibitory effect on Hepatoma cell Hep3B compared with the reference compound” value in series [1] is “better inhibitory effect”. In addition, the IC50 in series [1] (120 h incubation) was found to be 0.013 µM. In the series “PK analysis of rats”, the “exposure amount AUC0-24 h and maximum drug concentration in blood Cmax compared with the reference compound” value is reported as “significantly higher than the reference compound”; the AUC(0-t) amounted to 2010 ng·h/mL; the Cmax was determined as 548 ng/mL. The IC50 on FGFR4 kinase [2] stood at 1.6 nM. Moreover, the “inhibitory effect on FGFR4 compared with the reference compound” value on FGFR4 kinase [3] is listed as “better inhibitory effect on FGFR4 than the reference compound”.
Consider `CSC(C)(C)CNc1cc(NC(=O)N2CCCc3cc(CN4CCN(C)CC4=O)c(C=O)nc32)ncc1C#N` [Compound 6, N-(5-cyano-4-((2-methyl-2-(methylthio)propyl)amino)pyridin-2-yl)-7-formyl-6-((4-methyl-2-oxopiperazin-1-yl)methyl)-3,4-dihydro-1,8-naphthyridine-1 (2H)-carboxamide], for which the half-maximal inhibitory concentration (IC50) came to 0.049 µM in series [1] (120 h) and 2.1 nM against FGFR4 kinase [2]. In addition, at FGFR4 kinase [3], the “inhibitory effect on FGFR4 compared with the reference compound” value is listed as “better inhibitory effect on FGFR4 than the reference compound”.
For `C[C@H](CS(C)(=O)=O)Nc1cc(NC(=O)N2CCCc3cc(CN4CCN(C)CC4=O)c(C=O)nc32)ncc1C#N` [Compound 83, N-(5-cyano-4-(((2R)-1-(methyl-sulfonyl)propan-2-yl)amino)pyridin-2-yl)-7-formyl-6-((4-methyl-2-oxopiperazin-1-yl)methyl)-3,4-dihydro-1,8-naphthyridine-1(2H)-carboxamide], the concentration for half-maximal inhibition (IC50) in series [1] (120 h incubation) was determined as 0.068 µM; on FGFR4 kinase [2], 2.1 nM. For the same molecule, on FGFR4 kinase [3], the “inhibitory effect on FGFR4 compared with the reference compound” value is recorded as “better inhibitory effect on FGFR4 than the reference compound”.
The matching figures for `CN1CCN(Cc2cc3c(nc2C=O)N(C(=O)Nc2cc(NCC[S+](C)[O-])c(C#N)cn2)CCC3)C(=O)C1` (stereo not drawn) [Compound 27, N-(5-cyano-4-((2-(methyl-sulfinyl)ethyl)amino)pyridin-2-yl)-7-formyl-6-((4-methyl-2-oxopiperazin-1-yl)methyl)-3,4-dihydro-1,8-naphthyridine-1(2H)-carboxamide]: 0.282 µM, 2.4 nM and “better inhibitory effect on FGFR4 than the reference compound”.
